This note sets out measurements from PubChem BioAssay AID651717 (Broad Institute, 2012).

In the test the test system is mESC Bmi1-luciferase reporter, firefly/renilla ratio, 24 h. Nature of the test: Bmi1-luciferase reporter activators in mESC, dose response, esBAF inhibitor project, mouse embryonic stem cells, cherry-pick (AID 651717).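 Note: luciferase knocked into Bmi1 locus with EF-1a renilla as cell number control; rising ratio signals esBAF inhibition which derepresses Bmi1.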 On the technique in general: A reporter such as luciferase makes a cellular process visible.
Consider `Cc1cc(C)c2c(N)c(C(=O)Nc3ccccc3Br)sc2n1`, for which the AC40 was 2.16 µM. Then `C=CCNc1nc(-c2ccc(O)c(C(N)=O)c2)cs1`, with 6.2 µM; and `O=C1NC(=Nc2ccccc2)S/C1=C\c1cccn1-c1ccccc1`, with 2.43 µM. Then `Cc1sc2nc(-c3ccc(Br)cc3)oc(=O)c2c1C`, with 1.61 µM; and `O=C(Nc1ccc2oc(-c3ccccc3)nc2c1)c1cccs1`, with 1.58 µM. Then `C=CCSC1=NNC(c2ccc(C(C)(C)C)cc2)=NN1`, with 8.49 µM; and `COc1ccc2nc3sc(C(=O)NCCCN4CCc5ccccc5C4)cc3cc2c1`, with 11.9 µM; and `Cc1cccc(NC(=O)c2ccccn2)c1C`, with 3.69 µM.

Turning to `CO[C@H]1CN(C)C(=O)c2cc(NC(=O)Nc3ccc4c(c3)OCO4)ccc2OC[C@H](C)NC[C@H]1C`, the AC40 was 3.29 µM. Then `COc1cccc(N(C(=O)c2cccs2)c2nc3ccccc3s2)c1`, with 3.76 µM. As for `Cc1ccc(C(=O)Nc2cccc(O)c2)cc1S(=O)(=O)N1CCCCCC1`, the figure is 14.5 µM. Turning to `Cc1ccc(NC(=O)NC(=O)N(c2ccccc2)S(C)(=O)=O)cc1`, the AC40 was 7.14 µM. Then `Cc1ccc(Nc2nc(Cl)nc(NC(C)(C)C)n2)cc1`, with 1.47 µM. Then `O=C(Cc1ccc(Cl)cc1)c1ccccc1`, with 1.84 µM; and `Cc1ccc(Nc2ncnc3sc(C)c(C)c23)cc1`, with 3.76 µM. Then `Oc1ccc(-c2nnc(SCc3ccccc3)o2)cc1`, with 7.97 µM; and `c1ccc(Nc2cccc(Nc3ccccc3)n2)cc1`, with 4.8 µM; and `CCCC(=O)Nc1sc2c(c1C#N)CCCCC2`, with 2.39 µM. With `COc1ccc(-c2ccc3oc(-c4ccsc4)cc(=O)c3c2)cn1`, the AC40 is 1.67 µM.

As to `Cn1c(-c2ncc(F)cc2F)cc2onc(-c3c(F)cccc3Cl)c2c1=O`, the AC40 is 0.47 µM. Then `O=C(N/N=C/c1cccs1)c1cccc2cc[nH]c12`, with 6.06 µM; and `COc1ccccc1NC(=O)CSc1nc2sc3c(c2c(=O)n1-c1ccccc1)CCN(C)C3`, with 19.1 µM; and `C=CCNc1nc2cc(-c3ccccc3OC)sc2c(=O)n1C`, with 5.18 µM. Then `O=C(NNC(=O)c1ccccc1OCc1ccccc1)c1ccccc1F`, with 11.5 µM; and `O=C(Nc1ccc(F)cc1)c1ccccc1`, with 7.36 µM; and `CN(C)c1ccc(N=Nc2ccccc2C(=O)OCC(=O)Nc2ccccc2C(F)(F)F)cc1`, with 4.61 µM. As for `COc1nc(Nc2ccc(C(C)C)cc2)nc(OC)n1`, the figure is 10.8 µM; as for `Cc1nc(-c2ccccc2)sc1-c1nnc(C2CC2)o1`, 4.24 µM. Regarding `CNc1nc(-c2ccc3c(c2)CCN3C(=O)c2ccc(F)cc2)cs1`, the AC40 is 8.13 µM. As for `N/C(=N\OC(=O)CC1CCCCC1)c1ccccn1`, the figure is 3.84 µM. Then `O=c1c2ccccc2oc2cc(Br)ccc12`, with 7.16 µM; and `Cc1ccc(Nc2nc3c(c(=O)[nH]2)CCCC3)cc1`, with 8.9 µM. As for `CC(C)c1ccc(NC(=O)c2cccnc2)cc1`, the figure is 2.6 µM; as for `O=C(/C=N/NC(=O)c1ccc(Cl)cc1Cl)c1ccccc1`, 1.41 µM. As for `O=c1oc(-c2ccccc2)cc2ccccc12`, the AC40 is 3.89 µM. As for `Cc1cc(=O)oc2cc(NC(=O)c3cccc(F)c3)ccc12`, the figure is 1.82 µM. As for `COc1ccc(NC(=O)Cc2ccccc2)cc1`, the figure is 8.22 µM; as for `O=C1N=C(N2CCCCC2)S/C1=C\c1ccccc1F`, 2.67 µM; as for `O=C(O)c1ccc2c(c1)C(=O)N(CCc1c[nH]c3ccccc13)C2=O`, 5.77 µM. Take `CCN(CC)C(=O)OCc1c(-c2ccccc2)ncc2ccccc12`: the AC40 is 2.25 µM. Then `O=C(Cc1ccccc1)N/N=C/c1ccccc1OCc1ccc(Cl)cc1`, with 4.61 µM; and `O=C(c1ccc2ccccc2c1)N1CCN(Cc2ccccc2)CC1`, with 9.83 µM.

For `OC(c1ccc(F)cc1)c1ncc(-c2ccc3ccccc3c2)[nH]1` (stereo not drawn), the AC40 was 10.9 µM. Consider `Cc1cccc(NC(=O)c2c(O)c3ccccc3[nH]c2=O)c1`, for which the AC40 was 0.371 µM. Then `Cc1ccc(OCc2cnc(Cl)s2)c(C)c1`, with 4.12 µM; and `Cn1c(SCc2c(F)cccc2Cl)nnc1-c1cccs1`, with 11.1 µM; and `CC(C)(C)c1ccc(C(=O)c2cn[nH]c2-c2ccccc2O)cc1`, with 7.24 µM.

Take `CCC(C)(C)C1CCc2[nH]nc(C(=O)NC3CCCCC3)c2C1` (stereo not drawn): the AC40 is 6.44 µM.

Regarding `CCn1c(O)c(/C=C2\C=Nc3ccccc32)sc1=Nc1ccccc1`, the AC40 was 14.2 µM. As for `CC(=O)c1ccc(N2CCN(C(=O)c3ccc(Cn4c(=S)[nH]c5ccc(N6CCOCC6)cc5c4=O)cc3)CC2)cc1`, the figure is 24.8 µM; as for `CO[C@@H]1CN(C)C(=O)c2ccc(NC(=O)Nc3ccc4c(c3)OCO4)cc2OC[C@@H](C)NC[C@@H]1C`, 2.93 µM. As for `CN(C)S(=O)(=O)c1ccc(C(=O)Nc2ccc3c(c2)CCC3)cc1`, the figure is 4.91 µM. Then `Cc1cccc(-c2noc(Cc3ccccc3)n2)c1`, with 2.87 µM; and `Cc1cc2oc(=O)cc(CN3CCC(C)CC3)c2c(C)c1Cl`, with 4.55 µM; and `N/C(=N\OC(=O)C1CCCCC1)c1ccc(Cl)cc1`, with 6.24 µM. On to `Cn1c(=NC(=O)C2CC2)sc2cc(F)cc(F)c21`, for which the AC40 is 16.6 µM. As for `Fc1ccc2nc(-c3ccccc3)ccc2c1`, the figure is 1.14 µM; as for `CCn1cnc2cc(NCc3ccc(OC)cc3)ccc21`, 0.992 µM; as for `Cc1ccc(C(=O)CNc2ccccc2)cc1`, 16.6 µM. In the case of `Cc1cccc(N2C(=O)CC(N(O)c3ccccc3)C2=O)c1` (stereo not drawn), the AC40 is 28.4 µM. As for `COc1ccccc1C=Cc1ccnc2ccccc12`, the figure is 7.65 µM; as for `CCN(CC)C(=O)c1nc(-c2cccc3ccccc23)no1`, 13.1 µM; as for `COc1cccc(NC(=O)C(=O)NCC2CCCN2S(=O)(=O)c2cccs2)c1` (stereo not drawn), 1.25 µM. As for `Cn1c(/N=C(\N)c2ccccc2)nc2ccccc21`, the figure is 0.587 µM. Then `O=C(NC1CCCCC1)c1ccc(-c2ccccc2)cc1`, with 3.77 µM; and `Cc1noc(C)c1COC(=O)c1cc(C)n(-c2ccccc2)c1C`, with 10 µM; and `CCN1CCN(c2ccc(NC(=O)c3cccc(N4CCCC4=O)c3)cc2)CC1`, with 10.3 µM. For `Cc1cc(C(=O)Cn2cnc3ccccc3c2=O)c(C)n1C1CC1`, the AC40 is 2.92 µM. As for `Cc1csc(-c2ccc3cc(Cl)cc(Cl)c3n2)n1`, the figure is 5.82 µM; as for `COc1ccc2c(c1OC)C(=O)N1c3ccccc3SC21` (stereo not drawn), 0.438 µM. Then `Cc1cc(OCc2cc(C(=O)N(C)C(C)c3ccccn3)no2)cc(C)c1Cl` (stereo not drawn), with 14.7 µM; and `Nc1ccc2c(c1)C(=O)c1ccc(N)cc1-2`, with 0.55 µM. Turning to `CCCCCn1c(=O)c(C(=O)Nc2ccccc2Cl)c(O)c2ccccc21`, the AC40 is 5.14 µM. Then `O=C1CCN(Cc2ccccc2)CCN1CCSc1ccccc1`, with 3.08 µM; and `c1ccc(-c2cc3ccccc3[nH]2)cc1`, with 5.17 µM. Then `CCn1ccnc1CN(C)C(=O)c1cc(COc2ccccc2SC)on1`, with 8.01 µM.

Turning to `COc1ccc(/C=N/OCc2ccccc2C#N)c(OC)c1`, the AC40 was 6.27 µM. As for `COc1ccc(NC(=O)c2cc(-c3ccccc3Cl)on2)cc1`, the figure is 11.8 µM.

Consider `COc1ccccc1C(=O)Nc1sc2c(c1C#N)CCC2`, for which the AC40 is 2.15 µM. As for `O=C(Nc1ccccc1Cl)c1cc(=O)c2ccccc2o1`, the figure is 0.468 µM; as for `CCN(CC)S(=O)(=O)c1ccc2c(c1)nc(-c1ccccn1)n2C`, 11.1 µM; as for `CNc1cnc(-c2ccc(F)c(F)c2F)cn1`, 1.54 µM. Take `Cn1c(COc2ccccc2)nc2ccccc21`: the AC40 was 2.59 µM. As for `CN(C)c1cccc(-c2csc(N3CCC(C(N)=O)CC3)n2)c1`, the figure is 0.362 µM.

As for `O=C(Nc1ccc(Cl)c(Cl)c1)c1ccncc1`, the AC40 was 6.32 µM. With `Cc1ccc(C(=O)CN2C(=O)NC3(CCCCCC3)C2=O)c(C)c1`, the AC40 is 1.63 µM. Then `C#CCn1cccc(C(=O)Nc2ccc(OC)cc2)c1=O`, with 10.7 µM; and `COc1ccc(/C=N/Nc2nc(C)nc(N)n2)cc1`, with 15.5 µM. Then `CNC(=O)c1ccc(-c2cc3onc(-c4ccccc4)c3c(=O)n2C)cc1`, with 1.16 µM. As for `Cc1ccc(C(=O)Nc2ccc(Br)c(C(F)(F)F)c2)cc1`, the figure is 1.73 µM; as for `Cc1ccc(NC(=O)Nc2cccc(C)n2)c(C)c1`, 6.01 µM. For the compound `Cn1cnc(S(=O)(=O)N2CCCCC2c2cc(C(=O)Nc3ccc(F)c(Cl)c3)no2)c1` (stereo not drawn), the AC40 is 8.38 µM.

For `CCCn1cnc2c(SCCc3ccccc3)nc(N)nc21`, the AC40 was 7.67 µM. Then `Cc1csc(NC(=O)Cc2c[nH]c3ccccc23)n1`, with 10.2 µM; and `Clc1ccccc1C=NNc1ccccn1`, with 2.27 µM. On to `O=C(NOCc1ccccc1)OCc1ccccc1`, for which the AC40 is 4.39 µM.

For `CC(=O)c1ccc(NC(=O)CNCc2cccs2)cc1`, the AC40 was 12.3 µM. For `COC(=O)c1c(-c2ccc(S(C)(=O)=O)cc2)sc2ccc(OC)cc12`, the AC40 was 0.954 µM.

On to `CCn1c2ccccc2c2cc(NC(=O)N3CCCCC3)ccc21`, for which the AC40 was 1.19 µM. As for `Nc1cc2c(cc1Cl)-c1ccc(Cl)cc1C2`, the figure is 11.3 µM.

With `CO[C@@H]1CN(C)C(=O)c2ccc(NC(=O)Nc3ccc4c(c3)OCO4)cc2OC[C@H](C)NC[C@@H]1C`, the AC40 was 5 µM. Then `COc1ccccc1C(=O)Oc1ccccc1C(=O)Nc1ccccc1`, with 5.18 µM.

`COc1ccccc1CNC(=O)C[C@H]1CC[C@@H]2[C@H](COC[C@H](O)CN2C(=O)Nc2ccc(Cl)cc2)O1`: the AC40 was 14.1 µM. As for `Cc1ccc(-c2nc3ccccc3[nH]2)cn1`, the figure is 3.49 µM; as for `O=C(Cc1ccccn1)c1ccc(Cl)cc1`, 3.14 µM; as for `COC(=O)c1ccc2c(C)c(C3(O)CCCCC3)[nH]c2c1`, 7.47 µM.

With `CN(Cc1cccnc1)C(=O)c1cc(COc2ccc3c(c2)CCCC3)on1`, the AC40 is 0.9 µM. In the case of `COc1ccc(CNc2nc(NCc3ccc(OC)cc3)n(C(=O)c3ccccc3[N+](=O)[O-])n2)cc1`, the AC40 is 18.8 µM.
